From article PMC5791972 (PLoS ONE, 2018)

Columns and labels:
[1] = test system: NMRI mice; assay type: in vivo, mouse; details: 8 mg/kg oral
Experimental: NMRI mice were habituated to their room for at least 2 to 3 weeks after the delivery and kept under standard conditions in groups of 4–5 animals per cage. Food and water were available ad libitum.
The tail suspension test was performed using with a BIOSEB system. In preparation for the experiment, a piece of tape (approx. 15 cm long) was wrapped around the end of the mouse tail approximately 2 mm before the tip. The tape was then attached to a holding device within the measuring unit at a height of approximately 30cm.
Movements of the animals were monitored and automatically evaluated by corresponding software. The duration of immobility during 6 min observation period was recorded. At the end of the experiment plasma samples were taken and the animals were sacrificed via isofluorane inhalation and subsequent decapitation.

[2] = target: 5-HT1B (Rattus norvegicus, UniProt P28564)
Sequence of 5-HT1B (P28564 whole entry): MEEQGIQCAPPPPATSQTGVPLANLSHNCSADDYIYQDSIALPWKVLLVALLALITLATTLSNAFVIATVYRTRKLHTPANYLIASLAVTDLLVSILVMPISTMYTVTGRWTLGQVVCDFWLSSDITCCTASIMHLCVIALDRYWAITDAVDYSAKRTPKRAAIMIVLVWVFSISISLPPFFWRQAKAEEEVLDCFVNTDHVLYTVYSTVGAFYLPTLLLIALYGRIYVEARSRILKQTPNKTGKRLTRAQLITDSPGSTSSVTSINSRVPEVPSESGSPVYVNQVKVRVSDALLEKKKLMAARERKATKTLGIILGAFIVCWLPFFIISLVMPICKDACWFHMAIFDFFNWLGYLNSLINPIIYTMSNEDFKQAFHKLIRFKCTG

[3] = target: 5-HT4e (h) (Homo sapiens, UniProt Q13639)
Sequence of 5-HT4e (h) (Q13639 1-378 isoform Q13639-5): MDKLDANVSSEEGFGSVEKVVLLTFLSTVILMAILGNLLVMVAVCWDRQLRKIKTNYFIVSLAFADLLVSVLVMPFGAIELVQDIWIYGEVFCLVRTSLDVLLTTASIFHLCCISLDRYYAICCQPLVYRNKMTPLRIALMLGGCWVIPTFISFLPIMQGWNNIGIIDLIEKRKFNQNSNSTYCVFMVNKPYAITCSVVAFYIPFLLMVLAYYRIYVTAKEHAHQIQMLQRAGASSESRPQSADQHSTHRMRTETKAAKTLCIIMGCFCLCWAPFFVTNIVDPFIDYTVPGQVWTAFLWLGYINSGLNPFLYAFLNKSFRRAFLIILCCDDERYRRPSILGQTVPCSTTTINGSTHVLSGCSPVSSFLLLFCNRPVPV

[4] = target: 5-HT6 (h) (Homo sapiens, UniProt P50406)
Sequence of 5-HT6 (h) (P50406 whole entry): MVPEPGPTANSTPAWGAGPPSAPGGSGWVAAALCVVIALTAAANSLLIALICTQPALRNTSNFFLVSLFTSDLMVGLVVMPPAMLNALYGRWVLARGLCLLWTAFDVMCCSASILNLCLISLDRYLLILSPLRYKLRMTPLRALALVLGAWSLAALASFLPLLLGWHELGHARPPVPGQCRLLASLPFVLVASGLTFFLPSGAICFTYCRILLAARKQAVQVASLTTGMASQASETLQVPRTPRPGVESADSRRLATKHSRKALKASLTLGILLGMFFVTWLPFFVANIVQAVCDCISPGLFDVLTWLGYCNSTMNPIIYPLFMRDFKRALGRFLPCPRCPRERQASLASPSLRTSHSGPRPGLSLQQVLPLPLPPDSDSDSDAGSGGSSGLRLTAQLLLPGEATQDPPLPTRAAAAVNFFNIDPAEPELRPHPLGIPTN

| Compound | time of immobility [1] | nH [2] | nH [3] | nH [4] |
| --- | --- | --- | --- | --- |
| CNCCCN1c2ccccc2CCc2ccccc21 [desipramine, reference compound] | reduced the time of immobility |  |  |  |
| NCCc1c[nH]c2ccc(O)cc12 [serotonin] |  | 0.7 | 0.9 | 1.0 |
